Where “and” joins values, the source holds several entries; their conditions need not be identical. Equal entries are not always repeated.
Experiments:
[1] = test system: Salmonella typhimurium TA98; experiment: Bacterial reverse mutation assay, TA98; details: TA98, S9+, 1.0 μg/plate, positive control
[2] = test system: Salmonella typhimurium TA100; experiment: Bacterial reverse mutation assay, TA100; details: TA100, S9+, 2.0 μg/plate, positive control
[3] = test system: Salmonella typhimurium TA1535; experiment: Bacterial reverse mutation assay, TA1535; details: TA1535, S9+, 3.0 μg/plate, positive control
[4] = test system: Salmonella typhimurium TA1537; experiment: Bacterial reverse mutation assay, TA1537; details: TA1537, S9+, 3.0 μg/plate, positive control
[5] = test system: Escherichia coli WP2uvrA (pKM101); experiment: Bacterial reverse mutation assay, WP2uvrA (pKM101); details: S9+, 2.0 μg/plate, positive control

**Q.** Which results are given for `Nc1ccc2cc3ccccc3cc2c1` [2-Aminoanthracene (2-AA), 2-Aminoanthracene]?
**A.** Mean revertant colony count [1]: 362 and 440; Mean revertant colony count [2]: 592 and 838; Mean revertant colony count [3]: 101; Mean revertant colony count [4]: 129 and 220; Mean revertant colony count [5]: 462 and 545
